{"source": "patent US20240277705A1", "about": "“DOSAGE REGIMENS FOR ECUBECTEDIN” (PHARMA MAR S.A., priority 2021, published 2024)", "key": {"[1]": {"tested_on": "MRI-H-121 xenografts (human renal carcinoma tumor line)", "assay": "MRI-H-121 mouse xenograft study, antitumor activity", "format": "in vivo, mice", "settings": "1.25 mg/kg i.v. days 0, 7 and 14", "procedure": "Compounds: Vials of off-white lyophilized PM14 cake were stored at −20° C. The cake was reconstituted with 2 ml of water for injection (Sigma-Aldrich, Co) to a concentration of 0.5 mg/ml. Further dilutions were made with a 5% glucose solution for injection/USP (Baxter, Inc.). A clear PM14 solution was obtained.\nAnimals: Female athymic nu/nu mice between 4 to 6 weeks of age were purchased from Envigo (Barcelona, Spain).\nTumor line: MRI-H-121 is a human renal carcinoma tumor line, originally obtained from the DCT Tumor Bank. Developed by Dr. A. E. Bogden, Mason Research Institute MA and maintained as a serial transplanted tumor line in athymic nude mice. Original tissue came from a patient at U. of Mass. Med. Center.\nStudy groups: Briefly, 4 to 6 week-old female athymic nu/nu mice were subcutaneously implanted into their right flank with a MRI-H-121 tissue from serial transplanted donor mice. Tumors were removed from donor animals and were cut into fragments (3 mm^3). Tissue was debrided of membrane, hemorrhagic and necrotic areas, placed in Matrigel™ (Corning Incorporated Life Sciences) and subcutaneously implanted. Recipient mice were anesthetised by inhalation of isoflurane, a small incision into the skin of the back was made and one tumor fragment per mouse was transplanted with tweezers. The mice were monitored daily.\nTumor bearing animals were randomly allocated into 2 groups (N=10/group): PM14 administered at 1.25 mg/kg and placebo. All treatments were intravenously administered once a week for 3 consecutive weeks (days 0, 7 and 14).\nTumor measurements were determined using digital calipers (Fowler Sylvac, S235PAT). The formula to calculate volume for a prolate ellipsoid was used to estimate tumor volume (mm^3) from 2-dimensional tumor measurements:\nWhere, a: length (longest diameter) and b: width (shortest diameter) in mm of a tumor.\nTumor volume and animal body weights were measured 2-3 times per week starting from the first day of treatment.\nWhen tumors reached ca. 190 mm^3, tumor bearing animals were randomly allocated into the following experimental groups (N=10/group):\nTreatments were initiated on Day 0 and were intravenously administered once per week for 3 consecutive weeks (days 0, 7 and 14).\nTumor volume data from groups following the 1st, 2nd, 3rd, 4th and 5th weeks were compared using a two tailed Mann Whitney U test. The data are presented as medians and interquartile range (IQR).\nComplete tumor regression (CR) was defined when tumor volume <63 mm^3 for 2 or more consecutive measurements. Survival statistical differences between groups were assessed by Kaplan Meier curves applying the log rank test."}, "WM-266-4 (Melanoma)": {"tested_on": "WM-266-4 (Melanoma)", "assay": "MTT cell viability assay, WM-266-4", "format": "cell-based", "settings": "Homo sapiens", "procedure": "Cell viability assay: To assess the antiproliferative activity of the compounds a colorimetric assay based on 3-(4,5-Dimethylthiazol-2-yl)-2,5-diphenyltetrazolium bromide (MTT) reduction was used. […] An appropriate number of cells, to reach a final cell density in the assay ranging from 5,000 to 15,000 cells per well depending on the cell line, were seeded in 96-well plates and allowed to stand in culture medium for 24 h at 37° C. under 5% CO2 and 98% humidity. Then, compounds or DMSO in culture medium were added to reach a final volume of […] and the intended compound concentration in a range covering 10 serial 2/5 dilutions starting from […] (10 μg/mL for doxorubicin) in 1% (v/v) DMSO. At this point a set of “time zero control plates” treated with 1% (v/v) DMSO were processed with MTT as described below. The rest of the plates were incubated during 72 h under the aforementioned environmental conditions. […] Culture medium was then removed and 100 μL of neat DMSO added to each well to dissolve the formazan product into a coloured solution whose absorbance at 540 nm was finally measured in a PolarStar Omega microplate multilabel reader (BMG Labtech, Ortenberg, Germany). […]\nGI50 values were determined as described in Example 1, but using the following human cancer cell line: • WM-266-4 (ATCC@ CRL-1676) (Melanoma) […]"}}}
{"compound": "COc1c(C)cc2c(c1O)[C@@H]1[C@@H]3[C@@H]4SC[C@]5(N[C@H](CO)Cc6c5[nH]c5ccccc65)C(=O)OC[C@@H](c5c6c(c(C)c(OC(C)=O)c54)OCO6)N3[C@@H](O)[C@H](C2)N1C", "note": "[PM14, ECUBECTEDIN]", "values": [{"measurement": "Median survival time", "setting": "[1]", "result": 32.5, "unit": "days"}, {"measurement": "antitumor activity", "setting": "[1]", "result": "very strong antitumor activity"}, {"measurement": "TV, mm^3 median", "setting": "[1]; Day 0", "result": 190.8, "unit": "mm^3"}, {"measurement": "TV, mm^3 median", "setting": "[1]; Day 7, 1.25 mg/kg", "result": 401.2, "unit": "mm^3"}, {"measurement": "TV, mm^3 median", "setting": "[1]; Day 14, 1.25 mg/kg", "result": 472.7, "unit": "mm^3"}, {"measurement": "TV, mm^3 median", "setting": "[1]; Day 21, 1.25 mg/kg", "result": 743.8, "unit": "mm^3"}, {"measurement": "TV, mm^3 median", "setting": "[1]; Day 28, 1.25 mg/kg", "result": 1392, "unit": "mm^3"}, {"measurement": "TV, mm^3 median", "setting": "[1]; Day 35, 1.25 mg/kg", "result": 2015, "unit": "mm^3"}, {"measurement": "GI50", "setting": "WM-266-4 (Melanoma)", "result": 1.94, "unit": "nM"}]}
